Measured values reported in patent US20130150375A1, “GEPIRONE-ER TREATMENT OF MAJOR DEPRESSION IN PATIENTS TAKING NON-STEROIDAL ANTI-INFLAMMATORY DRUGS (NSAIDs)” (Fabre-Kramer Pharmaceuticals.Inc., priority 2011, published 2013).

Key:
[1] = in vivo; cited from earlier work
[2] = system: presynaptic α-2-adrenoceptor; details: cited from earlier work
[3] = system: 5-HT receptors; details: cited from earlier work
[4] = system: post-synaptic receptors in the hippocampus; details: cited from earlier work
[5] = system: depressed subjects; assay: Antidepressant efficacy with and without concomitant NSAIDs in depressed subjects (HAMD-17); type: in vivo, human; details: for HAMD-17 CFB (change from baseline) / Remitters (HAMD-17 score of 7 or less after treatment) / Responders (50% improvement in HAMD-17): end of treatment
Source text: To control for a placebo effect, 1045 depressed patients taking placebo were studied. Finally, 1041 depressed subjects taking gepirone-ER were studied. In contrast to the STAR-D study, three measures of efficacy were employed: remitters (HAMD-17 score 7 or less at end of treatment), responders (HAMD-17 50% reduction from baseline score at end of treatment) and HAMD-17 total score (change from baseline at end of treatment). Further, to test a possible dose of NSAID effect, two dose levels were tested: subjects taking any NSAID any time and subjects taking daily aspirin and other NSAIDs.

[6] = system: depressed patients taking an NSAID; assay: Individual patient cases from the study (Examples 1 and 2), HAMD-17; type: in vivo, human; details: Example 2: person taking ibuprofen
Source text: The following Examples represent a sampling of the subjects studied:
A person came to a psychiatric clinic complaining of depression. Their symptoms included: depressed mood, insomnia, lack of energy, low sex drive, and mild suicidal thoughts. They also were being treated for cardiac complains and was taking a daily NSAID (aspirin) to improve blood flow. They refused to discontinue their aspirin because their cardiologist had prohibited them from doing so. Their initial HAMD-17 was 26. After 8 weeks of treatment with Gepirone-ER all of their depressive symptoms had been eliminated.
A person came into the same psychiatric clinic complaining of depression. Their symptoms included depressed mood, lethargy, guilt, and trouble waking up early in the morning. They were also being treated by their neurologist for chronic headaches with ibuprofen. They refused to discontinue the ibuprofen because the headaches interfered with their ability to work. Their initial HAMD-17 was 16. […] A further trial of a second SSRI (citalopram) also failed.

[7] = High NSAID (daily aspirin and other NSAIDs)
[8] = High NSAID (daily aspirin and other NSAIDs), listed as fluoxetine
[9] = no NSAID (None), comparison to Any NSAID
[10] = no NSAID (None), comparison to High NSAID
[11] = subjects taking any NSAID any time

## c1cnc(N2CCNCC2)nc1 [1-PP, 1-(2-pyrimidinyl)piperazine]
[1]
  Antidepressant-like characteristics in pre-clinical tests: did not exhibit antidepressant-like characteristics
[2]
  Action at presynaptic α-2-adrenoceptor: antagonist

## CC1(C)CC(=O)N(CCCCN2CCN(c3ncccn3)CC2)C(=O)C1O (stereo not drawn) [3′-OH gepirone]
[3]
  Affinity for 5-HT receptors: significant affinity
[4]
  Agonism at post-synaptic receptors in the hippocampus: full agonism

## CNCCC(Oc1ccc(C(F)(F)F)cc1)c1ccccc1 (stereo not drawn) [Fluoxetine]
[5]; [7]
  HAMD-17 CFB (change from baseline): −9.03
  Remitters (HAMD-17 score of 7 or less after treatment): 27%
  Responders (50% improvement in HAMD-17): 45%
[5]; [8]
  HAMD-17 CFB (change from baseline): −9.04
  Responders (50% improvement in HAMD-17): 45%
[5]; either NSAID dose level, three efficacy measures
  Effect of NSAIDs on antidepressant efficacy: NSAIDs interfere with the antidepressant activity
[5]; [9]
  HAMD-17 CFB (change from baseline): −10.5
  Remitters (HAMD-17 score of 7 or less after treatment): 28.3%
  Responders (50% improvement in HAMD-17): 51%
[5]; [10]
  Remitters (HAMD-17 score of 7 or less after treatment): 32%
  Responders (50% improvement in HAMD-17): 55%
[5]; no NSAID (None), comparison to High NSAID, listed as fluoxetine
  Responders (50% improvement in HAMD-17): 55%
[5]; [11]
  HAMD-17 CFB (change from baseline): −9.57
  Remitters (HAMD-17 score of 7 or less after treatment): 29%
  Responders (50% improvement in HAMD-17): 48%
[6]
  Clinical outcome: no improvement
[6]; initial HAMD-17 16, after 8 weeks of treatment
  HAMD-17 score after treatment: 20
